The target in test [1] is T1, G12C-mutant human KRAS (amino acid residues 1-188) (Homo sapiens, UniProt P01116, G12C).
T1 construct: G12D or G12C-mutant human KRAS (amino acid residues 1-188) with FLAG tag; made in house; host or cells: E. coli
The experiment in a line: KRAS Binding Disruption Assay (AlphaScreen; biotinylated KRpep-2d analogue or RAF1-RBD), G12C. As to conditions: geometric mean, read-out: KRAS GMean IC50 (uM) MUTATION: G12C. Summed up:
(§1)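 Mutant KRAS (5-20 nM) incubated 1 h at 25° C with test compound and 5-20 nM biotinylated KRpep-2d analogue or RAF1-RBD in 20 mM HEPES pH 7.5, 100 mM NaCl, 5 mM MgCl2, 0.01% Tween-20, 0.01% BSA.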
In general terms: Bead proximity is the source of the signal in Alpha formats.

The target of test [2] is T2, G12D-mutant human KRAS (amino acid residues 1-188) (Homo sapiens, UniProt P01116, G12D).
T2 construct: G12D or G12C-mutant human KRAS (amino acid residues 1-188) with FLAG tag; made in house; host or cells: E. coli
The experiment in a line: KRAS Binding Disruption Assay (AlphaScreen; biotinylated KRpep-2d analogue or RAF1-RBD), G12D. As to conditions: for IC50: geometric mean, read-out: KRAS GMean IC50 (uM) MUTATION: G12D. In a few lines:
as §1

Test [3] concerns the target T3, G12V-mutant human KRAS (amino acid residues 1-188) (Homo sapiens, UniProt P01116, G12V).
T3 construct: G12V-mutant human KRAS (amino acid residues 1-188) with FLAG tag was purified from E. coli; made in house; host or cells: E. coli
The experiment in a line: KRAS Binding Competition Assay (AlphaScreen; biotinylated KRpep-2d analogue), G12V. Particulars: geometric mean, read-out: KRAS GMean IC50 (uM) MUTATION: G12V.

Read-outs that look alike come from different tables or passages of the source.

By IC50 is commonly meant the concentration that gives 50% inhibition.

Consider `CN1CCC[C@H]1COc1nc(N2C[C@H]3CC[C@@H](C2)N3)c2cc(Cl)c(-c3cc(O)cc4ccccc34)c(F)c2n1` [P-0001, 4-(4-((1R,5S)-3,8-diazabicyclo[3.2.1]octan-3-yl)-6-chloro-8-fluoro-2-(((S)-1-methylpyrrolidin-2-yl)methoxy)quinazolin-7-yl)naphthalen-2-ol], for which the IC50 in test [1] was 0.0001 to 10 µM; in test [2] (KRAS G12D) it was 0.0001 to 10 µM; in test [2] (Table 3, bridged vs non-bridged R1), 0.016 µM; in test [3], 10 to 100 µM. Moreover, in test [2] (Table 3, fold more potent than non-bridged version at the R1 variable), the “Improved KRAS G12D Biochemical Potency of Compounds with Bridged vs Non-Bridged R^1 Groups” value is “P-0001 is about 70 times more potent than its non- bridged version at the R^1 variable”.
For the compound `Oc1cc(-c2ccc3c(N4C[C@H]5CC[C@@H](C4)N5)nc(OCC45CCCN4CCC5)nc3c2)c2ccccc2c1` [P-0002, 4-(4-((1R,5S)-3,8-diazabicyclo[3.2.1]octan-3-yl)-2-((tetrahydro-1H-pyrrolizin-7a(5H)-yl)methoxy)quinazolin-7-yl)naphthalen-2-ol], the half-maximal inhibitory concentration (IC50) in test [1], in test [2] (KRAS G12D) and in test [3] was 0.0001 to 10 µM in each case.
Take `Cc1cccc2cccc(-c3ccc4c(N5C[C@H]6CC[C@@H](C5)N6)nc(OCC56CCCN5CCC6)nc4c3F)c12` [P-0005, 4-((1R,5S)-3,8-diazabicyclo[3.2.1]octan-3-yl)-8-fluoro-7-(8-methylnaphthalen-1-yl)-2-((tetrahydro-1H-pyrrolizin-7a(5H)-yl)methoxy)quinazoline]: the IC50 in test [1] lay in the range of 0.0001 to 10 µM; in test [2] (KRAS G12D), 0.0001 to 10 µM; in test [3] it was 10 to 100 µM.
Take `COc1cccc2c(-c3c(F)cc4c(N5C[C@H]6CC[C@@H](C5)N6)nc(OC[C@@H]5CCCN5C)nc4c3F)c[nH]c12` [P-0799, 4-((1R,5S)-3,8-diazabicyclo[3.2.1]octan-3-yl)-6,8-difluoro-7-(7-methoxy-1H-indol-3-yl)-2-(((S)-1-methylpyrrolidin-2-yl)methoxy)quinazoline]: the IC50 in test [1] lay within 100 to 1000 µM; in test [2] (KRAS G12D), 10 to 100 µM.
The like results for `CN1CCC[C@H]1COc1nc(N2C[C@H]3CC[C@@H](C2)N3)c2cc(F)c(-c3c[nH]c4c(Cl)cccc34)c(F)c2n1` [P-0800, 4-((1R,5S)-3,8-diazabicyclo[3.2.1]octan-3-yl)-7-(7-chloro-1H-indol-3-yl)-6,8-difluoro-2-(((S)-1-methylpyrrolidin-2-yl)methoxy)quinazoline] were, in that order, 100 to 1000 µM and 10 to 100 µM.
On the same counts, the results for `CN1CCC[C@H]1COc1nc(N2C[C@H]3CC[C@@H](C2)N3)c2cc(F)c(-c3cn(C)c4ccccc34)c(F)c2n1` [P-0801, 4-((1R,5S)-3,8-diazabicyclo[3.2.1]octan-3-yl)-6,8-difluoro-7-(1-methyl-1H-indol-3-yl)-2-(((S)-1-methylpyrrolidin-2-yl)methoxy)quinazoline] are 100 to 1000 µM and 10 to 100 µM.
Turning to `O=C1CCC(COc2nc(N3C[C@H]4CC[C@@H](C3)N4)c3ccc(-c4cc(O)cc5ccccc45)c(F)c3n2)N1` (stereo partly drawn) [P-0802, 5-(((4-((1R,5S)-3,8-diazabicyclo[3.2.1]octan-3-yl)-8-fluoro-7-(3-hydroxynaphthalen-1-yl)quinazolin-2-yl)oxy)methyl)pyrrolidin-2-one], the 50% inhibitory concentration (IC50) in test [1] fell in the range of 10 to 100 µM; in test [2] (KRAS G12D) it was 0.0001 to 10 µM.
On the same counts, the results for `Oc1cc(-c2ccc3c(N4C[C@H]5CC[C@@H](C4)N5)nc(OCCn4ccnc4)nc3c2F)c2ccccc2c1` [P-0803, 4-(2-(2-(1H-imidazol-1-yl)ethoxy)-4-((1R,5S)-3,8-diazabicyclo[3.2.1]octan-3-yl)-8-fluoroquinazolin-7-yl)naphthalen-2-ol] are 0.0001 to 10 µM and 0.0001 to 10 µM.
With `Oc1cc(-c2ccc3c(N4C[C@H]5CC[C@@H](C4)N5)nc(OCc4ncco4)nc3c2F)c2ccccc2c1` [P-0804, 4-(4-((1R,5S)-3,8-diazabicyclo[3.2.1]octan-3-yl)-8-fluoro-2-(oxazol-2-ylmethoxy)quinazolin-7-yl)naphthalen-2-ol], the 50% inhibitory concentration (IC50) in test [1] was 10 to 100 µM; in test [2] (KRAS G12D), 0.0001 to 10 µM.
The like results for `Oc1cc(-c2ccc3c(N4C[C@H]5CC[C@@H](C4)N5)nc(OCC4CCOCC4)nc3c2F)c2ccccc2c1` [P-0805, 4-(4-((1R,5S)-3,8-diazabicyclo[3.2.1]octan-3-yl)-8-fluoro-2-((tetrahydro-2H-pyran-4-yl)methoxy)quinazolin-7-yl)naphthalen-2-ol] were, in that order, 10 to 100 µM and 0.0001 to 10 µM.
The like results for `Fc1cc(F)c2c(-c3c(F)cc4c(N5C[C@H]6CC[C@@H](C5)N6)nc(OCC56CCCN5CCC6)nc4c3F)c[nH]c2c1` [P-0806, 4-((1R,5S)-3,8-diazabicyclo[3.2.1]octan-3-yl)-7-(4,6-difluoro-1H-indol-3-yl)-6,8-difluoro-2-((tetrahydro-1H-pyrrolizin-7a(5H)-yl)methoxy)quinazoline] were, in that order, 0.0001 to 10 µM and 0.0001 to 10 µM.
On the same counts, the results for `O=C(CCn1ccnc1)N1[C@@H]2CC[C@H]1CN(c1nc(OCC34CCCN3CCC4)nc3c(F)c(-c4cc(O)cc5ccccc45)ccc13)C2` [P-0807, 1-((1R,5S)-3-(8-fluoro-7-(3-hydroxynaphthalen-1-yl)-2-((tetrahydro-1H-pyrrolizin-7a(5H)-yl)methoxy)quinazolin-4-yl)-3,8-diazabicyclo[3.2.1]octan-8-yl)-3-(1H-imidazol-1-yl)propan-1-one] are 0.0001 to 10 µM and 0.0001 to 10 µM.
Consider `N#CCCC(=O)N1[C@@H]2CC[C@H]1CN(c1nc(OCC34CCCN3CCC4)nc3c(F)c(-c4cc(O)cc5ccccc45)ccc13)C2` [P-0808, 4-((1R,5S)-3-(8-fluoro-7-(3-hydroxynaphthalen-1-yl)-2-((tetrahydro-1H-pyrrolizin-7a(5H)-yl)methoxy)quinazolin-4-yl)-3,8-diazabicyclo[3.2.1]octan-8-yl)-4-oxobutanenitrile], for which the IC50 in test [1] and in test [2] (KRAS G12D) was 0.0001 to 10 µM each time.
Turning to `Fc1c(-c2c[nH]c3cccc(F)c23)c(Cl)cc2c(N3C[C@H]4CC[C@@H](C3)N4)nc(OCC34CCCN3CCC4)nc12` [P-0809, 4-((1R,5S)-3,8-diazabicyclo[3.2.1]octan-3-yl)-6-chloro-8-fluoro-7-(4-fluoro-1H-indol-3-yl)-2-((tetrahydro-1H-pyrrolizin-7a(5H)-yl)methoxy)quinazoline], the half-inhibitory concentration (IC50) in test [1] lay within 10 to 100 µM; in test [2] (KRAS G12D) it was 0.0001 to 10 µM.
As for `Oc1cc(-c2ccc3c(N4C[C@H]5CC[C@@H](C4)N5)nc(OCC4CCCC4)nc3c2F)c2ccccc2c1` [P-0810, 4-(4-((1R,5S)-3,8-diazabicyclo[3.2.1]octan-3-yl)-2-(cyclopentylmethoxy)-8-fluoroquinazolin-7-yl)naphthalen-2-ol], the half-inhibitory concentration (IC50) in test [1] was in the range of 10 to 100 µM; in test [2] (KRAS G12D) it was 0.0001 to 10 µM.
On the same counts, the results for `OCCCc1nc(N2C[C@H]3CC[C@@H](C2)N3)c2ccc(-c3cc(O)cc4ccccc34)c(F)c2n1` [P-0811, 4-(4-((1R,5S)-3,8-diazabicyclo[3.2.1]octan-3-yl)-8-fluoro-2-(3-hydroxypropyl)quinazolin-7-yl)naphthalen-2-ol] are 100 to 1000 µM and 0.0001 to 10 µM.
The like results for `OC/C=C/c1nc(N2C[C@H]3CC[C@@H](C2)N3)c2ccc(-c3cc(O)cc4ccccc34)c(F)c2n1` [P-0812, 4-(4-((1R,5S)-3,8-diazabicyclo[3.2.1]octan-3-yl)-8-fluoro-2-((E)-3-hydroxyprop-1-en-1-yl)quinazolin-7-yl)naphthalen-2-ol] were, in that order, 10 to 100 µM and 0.0001 to 10 µM.

Values taken from patent publication US20230081426A1, “COMPOUNDS AND METHODS FOR KRAS MODULATION AND INDICATIONS THEREFOR” (Plexxikon Inc., priority 2020, published 2023).
